Our source for the pKa values is the pKa sets of Baltruschat and Czodrowski (2020).

Take `Cc1cnc(C)c(C)[nH+]1`: the pKa (usually the negative logarithm of the acid dissociation constant) (basic group) is -3.6. With `Clc1ccnc(-c2ccccn2)c1`, where the note is “basic group”, the pKa amounted to 3.8. Consider `CC(C)(C)c1ccccc1C(=O)O`, for which the pKa (acidic group) turned out to be 3.53. Take `CCN(CC)CCCC(C)Nc1cc(OC)cc2cccnc12` (stereo not drawn): the pKa (basic group) is 10.3. Where the note is “acidic group”, `COc1c(Cl)cc(Cl)c(O)c1C(=O)NC1CC[NH+](C)CC1` gave a pKa of 6.02.

As for `NNCCCc1ccccc1`, where the note is “basic group”, the pKa is 7.2. `O=C(N/N=C/c1ccccc1[O-])c1ccncc1`: the pKa (acidic group) was 11.3. Regarding `CCc1c(C)c[nH]c1C`, where the note is “basic group”, the pKa amounted to 3.19. Same read-out and setting: the same measure for `CN[C@H]1CCCC[C@@H]1O`: 10.2. In turn, `COc1ncnc2c1cnn2C` gave a pKa (basic group) of 2.51. With `O=C(O)c1ccc(O)cc1`, for the setting “acidic group”, the pKa came out at 4.57. For the setting “basic group”, `NC(=O)NOCCC(N)C(=O)[O-]` (stereo not drawn) came in with a pKa of 8.9. As to `CCN(CC)C(C)C(=O)Nc1c(C)cccc1C` (stereo not drawn), for the setting “basic group”, the pKa worked out at 8.11. `O=C(O)c1cc(O)c(O)c(C(=O)O)[o+]1` yielded a pKa (acidic group) of 0.6.

`CSC1=NC(C)(C)C(O)=N1`: the pKa (acidic group) worked out at 9.48. Under “acidic group”, `COc1cccc(/C=C/C(=O)O)c1` registered a pKa of 4.38.

Consider `NCC[n+]1ccc2c([N+](=O)[O-])cccc2c1`, for which the pKa (basic group) stood at 6.65. For the compound `Cc1n[nH]c2ncnc(N)c12`, the pKa was 11.1 (acidic group) and 4.61 (basic group). Turning to `O=C([O-])c1cc2cc(Cn3ccnc3)ccc2o1`, the pKa (basic group) was determined as 7.17. Consider `Nc1ccc(Br)cc1`, for which, under “basic group”, the pKa worked out at 3.79. Take `CN1CC=CC1c1cccnc1` (stereo not drawn): under “basic group”, the pKa was found to be 7.04. Compound `COc1ccc(CON)cc1` yielded a pKa (basic group) of 4.42. In the case of `c1c[nH]cn1`, the pKa turned out to be 14.5 (acidic group) and 7.07 (basic group). On to `CN(C(=O)c1ccccc1)c1ccccn1`, for which, for the setting “basic group”, the pKa is 1.44. Same read-out and setting: the same measure for `C=C(C)C(=O)OCCN`: 8.7; for `N[C@@H](CC(=O)[O-])C(=O)[O-]`: 9.54. Under “acidic group”, `CC(C)C(Br)C(=O)O` (stereo not drawn) registered a pKa of 2.82.

As to `CC(C)(C(=O)O)C(C#N)c1ccccc1` (stereo not drawn), the pKa (acidic group) was 3.95. Compound `CC(C)(C)SC(=N)c1ccccc1` had a pKa (basic group) of 9.24. `CC(C)Nc1ncnc2[nH]ncc12`: the pKa by setting is: (acidic group) 11; (basic group) 4.62. In the case of `ClCCN1CCOCC1`, under “basic group”, the pKa is 6.27. Under “basic group”, `CCN(C)CCOCC[NH+](CC)CC` registered a pKa of 8.46. `NC(=[NH2+])NOCC(=O)O` yielded a pKa (acidic group) of 2.69. Same read-out and setting: the figure for `Sc1[nH+]ccc2ccccc12` is -1.9. The compound `Cc1cc2cccnc2c2ncccc12` registered a pKa (basic group) of 5.26. Compound `[NH3+][C@H]1CC(=O)NC1=O` displayed a pKa (acidic group) of 5.9. Turning to `CC(C)(C)NCCCCCCNC(C)(C)C`, where the note is “basic group”, the pKa came to 11. In the case of `c1cncc(-c2ccc[nH]2)c1`, the pKa (basic group) stood at 4.32.

For the compound `NCc1ccc(C=O)o1`, the pKa (basic group) was determined as 8.1. Turning to `N/C(=N\O)c1ccccc1`, the pKa (basic group) was 4.97. `Cc1ncc2c(c1O)C(=O)OC2` returned a pKa (acidic group) of 7.05.

As to `O=C1CC(=O)NC(=S)[N-]1`, the pKa (acidic group) amounted to 10.7. Still for that read-out and setting: the figure for `CC(=O)/C(Cl)=N/O` is 7.9; for `Oc1cccn[nH+]1` it is -1.8. Compound `C[N+](C)(C)Cc1ccc(O)cc1` yielded a pKa (acidic group) of 8.75. `O=S1(=O)C=C(O)c2ccccc21` came in with a pKa (acidic group) of 7.65. For `Nc1n[nH]c(N)c1/N=N/c1ccc(C(=O)O)cc1`, the pKa came to 4.68 (acidic group) and 3.4 (basic group). For `NCCNCc1ccccc1`, the pKa (basic group) amounted to 9.41.

With `S=C(Nc1ccc(Cl)c(Cl)c1)c1ccccc1`, the pKa (acidic group) amounted to 9.96. For the compound `O=C(O)/C=C/c1ccc(O)cc1`, under “acidic group”, the pKa stood at 4.64. As to `O/N=C(/NO)c1ccccc1`, the pKa (acidic group) came out at 10.7 and the pKa (basic group) was 3.8. Consider `CCc1cc(Cl)c(O)c(C(=O)NC[C@H]2CCC[NH+]2CC)c1OC`, for which the pKa (acidic group) amounted to 6.91.

With `O/N=C(/Cl)c1ccccc1`, the pKa (acidic group) was determined as 9.8.

For `COc1ccccc1C(=O)NO`, under “acidic group”, the pKa is 8.9. Take `COCCCN`: the pKa (basic group) is 9.92.

Where the note is “acidic group”, `O=S(=O)(Nc1ccc(Cl)cc1)C(F)(F)F` showed a pKa of 3.9. As for `O=C1C[C@@H]2OCC=C3CN4CC[C@@]56c7ccccc7N1[C@H]5C2[C@@]3(S(=O)(=O)[O-])C[C@H]46` (stereo partly drawn), where the note is “basic group”, the pKa was determined as 7.53. Still for that read-out and setting: the same measure for `CN(C)c1nc2c(o1)CCCC2`: 6.16. Where the note is “basic group”, `CNO` came in with a pKa of 6.05. This pKa and that of the compound before are within 0.2 log units of each other. As to `COC(=O)C1c2ccccc2-c2ccccc21`, the pKa (acidic group) is 11.5. `Cc1ccccc1/C=C/C(=O)O` yielded a pKa (acidic group) of 4.5. Take `CC[C@H](C)[C@H](N)C(=O)[O-]`: the pKa (basic group) came out at 9.77. Turning to `CCC(C(C)=O)C(C)=O`, the pKa (acidic group) was 11.3. Same read-out and setting: the figure for `CC(C)CCC(=O)O` is 4.84. `CSc1nc(N)c2c(ncn2[C@H]2O[C@H](CO)[C@@H](O)[C@H]2O)n1`: for the setting “basic group”, the pKa was 3.1. Compound `O=C([O-])c1ccccc1S` showed a pKa (acidic group) of 7.6. For the setting “basic group”, `CCCCCNCc1ccc(C)cc1` gave a pKa of 10.1.

In the case of `COP(=O)(O)NS(C)(=O)=O`, the pKa (acidic group) was determined as 1.16.
